For series [1], the system named is OCI-Ly10. Description: Growth inhibition of human OCILY10 cells at 3.3 uM incubated for 3 days in presence of 0.17 uM acalabrutinib relative to control. It is filed as functional. The note with it: OCI-Ly10, 72 h, time 3 day, read-out: GI.
In series [2] the test system is OCI-Ly10. Description: Growth inhibition of human OCILY10 cells at 0.33 uM incubated for 3 days in presence of 0.17 uM acalabrutinib relative to control. It is filed as functional. The settings on record: OCI-Ly10, 72 h, time 3 day, read-out: GI.
Series [3] has as its system SUD4. Put plainly: Growth inhibition of human SU-DHL-4 cells at 10 uM incubated for 3 days in presence of 0.003 uM acalabrutinib relative to control. It is filed as functional. The settings on record: SU-DHL-4, 72 h, time 3 day, read-out: GI.
Series [4] relates to SUD4. Description: Growth inhibition of human SU-DHL-4 cells at 10 uM incubated for 3 days (reference value: -1%). It is filed as functional. The note with it: SU-DHL-4, 72 h, time 3 day, read-out: GI.
Series [5] deals with SUD4. Put plainly: Growth inhibition of human SU-DHL-4 cells at 0.17 uM incubated for 3 days in presence of 0.017 uM acalabrutinib relative to control. It is filed as functional. The note with it: SU-DHL-4, 72 h, time 3 day, read-out: GI.
Series [6] concerns SUD4. Put plainly: Growth inhibition of human SU-DHL-4 cells at 0.33 uM incubated for 3 days (reference value: -1%). It is filed as functional. The note with it: SU-DHL-4, 72 h, time 3 day, read-out: GI.
Series [7] has as its system SUD4. Put plainly: Growth inhibition of human SU-DHL-4 cells at 3.3 uM incubated for 3 days (reference value: -1%). It is filed as functional. The note with it: SU-DHL-4, 72 h, time 3 day, read-out: GI.
The test system of series [8] is OCI-Ly10. Description: Growth inhibition of human OCILY10 cells at 1.7 uM incubated for 3 days in presence of 0.033 uM acalabrutinib relative to control. It is filed as functional. The note with it: OCI-Ly10, 72 h, time 3 day, read-out: GI.
Series [9] has as its system SUD4. Description: Growth inhibition of human SU-DHL-4 cells at 3.3 uM incubated for 3 days in presence of 0.033 uM acalabrutinib relative to control. It is filed as functional. The note with it: SU-DHL-4, 72 h, time 3 day, read-out: GI.
The test system of series [10] is OCI-Ly10. Put plainly: Growth inhibition of human OCILY10 cells at 1.7 uM incubated for 3 days in presence of 0.017 uM acalabrutinib relative to control. The note with it: OCI-Ly10, 72 h, time 3 day, read-out: GI. It is filed as functional.
For series [11], the system named is SUD4. Put plainly: Growth inhibition of human SU-DHL-4 cells at 0.17 uM incubated for 3 days in presence of 0.003 uM acalabrutinib relative to control. It is filed as functional. The settings on record: SU-DHL-4, 72 h, time 3 day, read-out: GI.
Series [12] has as its system OCI-Ly10. Put plainly: Growth inhibition of human OCILY10 cells at 0.33 uM incubated for 3 days in presence of 0.33 uM acalabrutinib relative to control. It is filed as functional. The note with it: OCI-Ly10, 72 h, time 3 day, read-out: GI.
The target in series [13] is Tyrosine-protein kinase BTK (Homo sapiens, UniProt Q06187). Put plainly: Inhibition of BTK (unknown origin) in presence of 25 uM ATP.
Sequence of Tyrosine-protein kinase BTK (Q06187 whole entry): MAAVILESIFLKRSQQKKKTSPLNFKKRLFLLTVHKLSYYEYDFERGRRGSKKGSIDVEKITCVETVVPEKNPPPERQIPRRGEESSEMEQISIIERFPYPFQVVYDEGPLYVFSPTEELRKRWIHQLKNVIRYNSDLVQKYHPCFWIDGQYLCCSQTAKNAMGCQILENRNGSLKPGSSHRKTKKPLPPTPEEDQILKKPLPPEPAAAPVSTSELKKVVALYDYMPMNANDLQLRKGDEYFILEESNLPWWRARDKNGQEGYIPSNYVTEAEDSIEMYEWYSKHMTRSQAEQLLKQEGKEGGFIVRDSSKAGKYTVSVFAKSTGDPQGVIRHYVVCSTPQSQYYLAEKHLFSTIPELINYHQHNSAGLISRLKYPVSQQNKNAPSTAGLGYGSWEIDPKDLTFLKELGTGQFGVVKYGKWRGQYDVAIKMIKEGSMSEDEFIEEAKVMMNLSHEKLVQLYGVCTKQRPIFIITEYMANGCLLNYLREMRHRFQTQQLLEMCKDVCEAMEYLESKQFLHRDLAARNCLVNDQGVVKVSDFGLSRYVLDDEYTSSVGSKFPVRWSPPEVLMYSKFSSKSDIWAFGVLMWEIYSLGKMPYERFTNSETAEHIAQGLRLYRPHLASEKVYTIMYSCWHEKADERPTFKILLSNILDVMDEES
Series [14] concerns the target NT-3 growth factor receptor (Homo sapiens, UniProt Q16288). Put plainly: Inhibition of TRKC (unknown origin) in presence of 50 uM ATP.
Series [15] has as its target T1, Interleukin-1 receptor-associated kinase 4 (Homo sapiens, UniProt Q9NWZ3).
T1 sequence (Q9NWZ3 whole entry): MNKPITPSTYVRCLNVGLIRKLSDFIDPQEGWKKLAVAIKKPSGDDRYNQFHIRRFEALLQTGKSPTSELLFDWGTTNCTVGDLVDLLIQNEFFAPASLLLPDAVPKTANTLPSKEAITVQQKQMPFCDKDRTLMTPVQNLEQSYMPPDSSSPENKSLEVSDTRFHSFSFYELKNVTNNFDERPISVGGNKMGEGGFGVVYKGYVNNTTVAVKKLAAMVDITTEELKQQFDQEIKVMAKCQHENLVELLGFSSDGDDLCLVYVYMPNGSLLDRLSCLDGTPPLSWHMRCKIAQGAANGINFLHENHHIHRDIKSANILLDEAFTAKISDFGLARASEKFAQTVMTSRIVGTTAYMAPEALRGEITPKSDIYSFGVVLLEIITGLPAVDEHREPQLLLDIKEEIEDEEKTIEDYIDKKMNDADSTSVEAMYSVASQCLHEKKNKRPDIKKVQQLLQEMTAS
Description: Inhibition of IRAK4 (unknown origin) phosphorylation by cell based assay.

A short description of series [16]: Aqueous solubility in pH 7.4 phosphate buffer. It is filed as physicochemical.
The target of series [17] is T2, Phosphatidylinositol 4,5-bisphosphate 3-kinase catalytic subunit delta isoform (Homo sapiens, UniProt O00329).
T2 sequence (O00329 whole entry): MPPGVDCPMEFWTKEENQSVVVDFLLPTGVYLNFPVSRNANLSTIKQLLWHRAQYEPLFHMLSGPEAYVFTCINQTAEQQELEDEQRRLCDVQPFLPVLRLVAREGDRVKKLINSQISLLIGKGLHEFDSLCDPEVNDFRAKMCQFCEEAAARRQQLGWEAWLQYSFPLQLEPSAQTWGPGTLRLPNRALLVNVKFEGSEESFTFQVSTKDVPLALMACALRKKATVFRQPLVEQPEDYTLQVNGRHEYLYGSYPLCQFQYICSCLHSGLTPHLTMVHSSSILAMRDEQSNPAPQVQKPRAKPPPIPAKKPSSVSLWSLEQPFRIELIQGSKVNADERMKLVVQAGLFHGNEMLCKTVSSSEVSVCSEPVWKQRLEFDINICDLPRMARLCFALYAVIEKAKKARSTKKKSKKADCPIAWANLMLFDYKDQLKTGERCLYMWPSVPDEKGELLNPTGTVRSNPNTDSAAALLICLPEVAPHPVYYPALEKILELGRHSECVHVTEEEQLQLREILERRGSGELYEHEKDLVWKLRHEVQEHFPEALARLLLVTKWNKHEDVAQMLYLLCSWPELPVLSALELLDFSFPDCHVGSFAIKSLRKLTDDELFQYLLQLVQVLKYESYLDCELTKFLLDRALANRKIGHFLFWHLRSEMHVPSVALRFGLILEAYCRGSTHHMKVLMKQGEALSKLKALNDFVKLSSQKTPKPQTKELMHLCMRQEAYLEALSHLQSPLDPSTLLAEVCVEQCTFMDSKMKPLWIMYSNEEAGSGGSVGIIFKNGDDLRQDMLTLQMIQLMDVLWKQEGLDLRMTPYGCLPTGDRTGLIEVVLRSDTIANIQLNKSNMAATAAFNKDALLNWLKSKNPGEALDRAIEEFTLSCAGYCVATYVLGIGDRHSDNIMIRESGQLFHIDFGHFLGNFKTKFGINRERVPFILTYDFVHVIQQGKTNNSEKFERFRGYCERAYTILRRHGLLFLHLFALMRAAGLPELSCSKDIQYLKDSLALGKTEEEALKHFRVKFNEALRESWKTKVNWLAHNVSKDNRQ
Put plainly: Inhibition of PI3Kdelta (unknown origin) in presence of […] uM ATP.

Series [18] addresses BDNF/NT-3 growth factors receptor (Homo sapiens, UniProt Q16620). Description: Inhibition of TRKB (unknown origin) in presence of 25 uM ATP.
In series [19] the target is High affinity nerve growth factor receptor (Homo sapiens, UniProt P04629). Put plainly: Inhibition of TRKA (unknown origin) in presence of 400 uM ATP.
Sequence of High affinity nerve growth factor receptor (P04629 whole entry): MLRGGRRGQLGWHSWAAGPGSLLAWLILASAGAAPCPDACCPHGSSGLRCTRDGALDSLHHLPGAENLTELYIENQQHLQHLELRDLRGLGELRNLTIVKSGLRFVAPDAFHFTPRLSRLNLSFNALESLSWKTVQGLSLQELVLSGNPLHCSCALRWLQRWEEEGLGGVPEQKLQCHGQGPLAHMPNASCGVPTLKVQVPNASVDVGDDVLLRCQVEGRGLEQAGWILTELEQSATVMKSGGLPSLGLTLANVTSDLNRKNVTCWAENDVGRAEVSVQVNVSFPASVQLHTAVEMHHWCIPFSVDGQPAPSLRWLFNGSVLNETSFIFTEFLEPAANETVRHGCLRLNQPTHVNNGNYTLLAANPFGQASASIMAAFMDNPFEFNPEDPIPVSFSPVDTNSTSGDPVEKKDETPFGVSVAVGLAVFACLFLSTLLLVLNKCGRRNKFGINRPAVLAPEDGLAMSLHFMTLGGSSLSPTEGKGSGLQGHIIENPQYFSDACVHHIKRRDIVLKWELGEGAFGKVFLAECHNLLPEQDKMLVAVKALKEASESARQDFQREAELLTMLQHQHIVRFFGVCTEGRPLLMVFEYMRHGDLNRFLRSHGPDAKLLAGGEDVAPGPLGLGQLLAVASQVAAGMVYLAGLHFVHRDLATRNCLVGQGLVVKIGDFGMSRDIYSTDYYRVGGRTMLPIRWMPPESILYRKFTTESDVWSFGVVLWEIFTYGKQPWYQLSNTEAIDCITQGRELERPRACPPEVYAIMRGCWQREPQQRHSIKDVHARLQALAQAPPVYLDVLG
Series [20] in a line: Apparent permeability across apical to basolateral side in human Caco-2 cells measured for 360 mins by liquid scintillation counting based analysis. It is filed as ADME, cell-based. A general note: Caco-2 cells form a polarised layer with tight junctions and transporters.
A short description of series [21]: Efflux ratio of apparent permeability basolateral to apical side over apical to basolateral side in human Caco-2 cells measured for 360 mins by liquid scintillation counting based analysis. It is filed as ADME, cell-based.
Series [22] is described as follows: Metabolic stability in human hepatocytes assessed as intrinsic clearance measured per 10^6 cells. It is filed as ADME, cell-based, Hepatocyte. The settings on record: read-out: CLH.

Converted amounts (≈) assume the structure as drawn. Bounds are passed on as bounds.

Usually IC50 stands for the concentration at which inhibition is half-maximal. For orientation: solubility means the dissolved amount per volume that the medium holds. The low end stands for little dissolved substance, the high end for much dissolved substance. As a reminder, the Papp A→B is the apparent permeability from the apical to the basolateral side of a cell layer. Broadly, the efflux ratio is a quotient of directional permeabilities that is used to spot active efflux.

Sequence of BDNF/NT-3 growth factors receptor (Q16620 whole entry): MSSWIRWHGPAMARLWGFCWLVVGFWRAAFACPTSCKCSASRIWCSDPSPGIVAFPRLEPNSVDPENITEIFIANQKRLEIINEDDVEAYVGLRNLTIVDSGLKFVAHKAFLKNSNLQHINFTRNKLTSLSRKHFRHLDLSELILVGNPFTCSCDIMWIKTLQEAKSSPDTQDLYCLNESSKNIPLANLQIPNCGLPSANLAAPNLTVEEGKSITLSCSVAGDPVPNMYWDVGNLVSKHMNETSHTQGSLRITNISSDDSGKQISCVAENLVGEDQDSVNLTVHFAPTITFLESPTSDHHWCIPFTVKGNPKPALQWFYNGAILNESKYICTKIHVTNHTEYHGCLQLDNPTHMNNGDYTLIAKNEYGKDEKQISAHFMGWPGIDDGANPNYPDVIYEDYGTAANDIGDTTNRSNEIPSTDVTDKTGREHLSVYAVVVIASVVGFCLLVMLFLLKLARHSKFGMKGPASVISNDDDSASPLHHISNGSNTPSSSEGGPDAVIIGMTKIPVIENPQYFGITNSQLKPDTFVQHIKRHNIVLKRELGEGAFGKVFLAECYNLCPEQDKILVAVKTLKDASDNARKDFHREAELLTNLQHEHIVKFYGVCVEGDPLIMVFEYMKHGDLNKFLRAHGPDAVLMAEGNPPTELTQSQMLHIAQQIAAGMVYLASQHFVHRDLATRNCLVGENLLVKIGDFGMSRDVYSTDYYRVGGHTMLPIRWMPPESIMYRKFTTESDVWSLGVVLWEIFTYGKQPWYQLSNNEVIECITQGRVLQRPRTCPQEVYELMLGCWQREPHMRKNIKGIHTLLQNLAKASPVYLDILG
Sequence of NT-3 growth factor receptor (Q16288 whole entry): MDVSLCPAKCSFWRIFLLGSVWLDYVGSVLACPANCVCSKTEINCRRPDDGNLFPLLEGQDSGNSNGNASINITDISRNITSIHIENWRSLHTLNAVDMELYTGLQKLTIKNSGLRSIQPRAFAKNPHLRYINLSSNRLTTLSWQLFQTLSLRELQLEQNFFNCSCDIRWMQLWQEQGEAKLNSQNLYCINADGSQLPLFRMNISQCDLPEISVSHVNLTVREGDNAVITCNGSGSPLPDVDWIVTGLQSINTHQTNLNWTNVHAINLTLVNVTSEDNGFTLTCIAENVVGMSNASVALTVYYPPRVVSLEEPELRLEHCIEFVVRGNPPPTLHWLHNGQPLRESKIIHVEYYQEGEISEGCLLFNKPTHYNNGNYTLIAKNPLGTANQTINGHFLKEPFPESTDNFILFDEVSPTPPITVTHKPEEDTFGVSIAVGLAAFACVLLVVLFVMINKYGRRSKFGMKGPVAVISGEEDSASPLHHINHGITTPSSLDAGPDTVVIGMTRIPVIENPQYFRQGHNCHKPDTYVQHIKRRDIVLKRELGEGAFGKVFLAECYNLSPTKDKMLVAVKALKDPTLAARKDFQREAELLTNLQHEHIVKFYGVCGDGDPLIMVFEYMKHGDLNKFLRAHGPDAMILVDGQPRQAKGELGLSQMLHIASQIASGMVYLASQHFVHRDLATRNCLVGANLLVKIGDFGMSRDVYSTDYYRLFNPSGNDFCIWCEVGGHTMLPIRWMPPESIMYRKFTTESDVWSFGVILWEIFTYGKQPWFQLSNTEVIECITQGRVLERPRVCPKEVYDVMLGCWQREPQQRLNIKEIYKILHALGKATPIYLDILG

Consider `CC[C@@H]1[C@H](F)C(=O)N[C@@H]1COc1nccc2cc(C(N)=O)c(OC)cc12` [ZIMLOVISERTIB], for which the figures for the inhibition of growth at 3.3 µM in series [1], in series [7] and in series [9] were 170%, 1% and 2%, respectively. For the same compound, the inhibition of growth at 0.33 µM in series [2] came out at 171%; in series [6], 1%; in [12], 172%. Also, the inhibition of growth at 10 µM in [3] and in series [4] was 2% in each case. The inhibition of growth at 0.17 µM in [5] and in series [11] was 1% throughout. The inhibition of growth at 1.7 µM in series [8] was determined as 139%; in series [10], 89%.

As for `Cc1ncc(-c2nc3c(NC(C)C)nc(Nc4cnn(C5CC6(C5)CN(C)C6)c4)nc3cc2F)cn1`, the inhibition of growth at 3.3 µM is 196% in [1] and 4% in [9]. Moreover, the values for the inhibition of growth at 0.33 µM in [2] and in [12] were 185% and 183%, respectively. Besides, the IC50 is over 10000 nM in series [13]; 570 nM in [14]; 210 nM in series [15]; 230 nM in [17]; 930 nM in series [18]; 480 nM in series [19]. The inhibition of growth at 10 µM in [3] was 7%. The solubility in series [16] was over 1000 µM. The inhibition of growth at 0.17 µM in series [5] and in series [11] was 3% each time. Moreover, the inhibition of growth at 1.7 µM in series [8] and in series [10] was 196% in each case. The Papp A→B at 6 h in series [20] stood at 7.7 ×10⁻⁶ cm/s. The efflux ratio at 6 h in series [21] was determined as 4.2. The hepatocyte CLint in series [22] is under 1 µL/min/1e6 cells.

Consider `Cc1ncc(-c2nc3c(OC4(C)CC4)nc(Nc4cnn(C5CCN(C)CC5)c4)nc3cc2F)cn1`, for which the inhibition of growth at 3.3 µM in [1] was 194%; in [7], -2%; in [9], -4%. The figures for the inhibition of growth at 0.33 µM in series [2], in series [6] and in series [12] were 169%, -1% and 172%, respectively. Besides, the IC50 in [13] is over 8000 nM; in [14], 270 nM; in series [15], 110 nM; in series [17] it was 53 nM; in series [18], 760 nM; in series [19], 270 nM. Further, the results for the inhibition of growth at 10 µM in series [3] and in [4] were 1% and 0%, respectively. Further, the solubility in [16] is 800 µM (≈ 392 µg/mL). Further, the inhibition of growth at 0.17 µM in [5] was 0%; in [11], -1%. Moreover, the values for the inhibition of growth at 1.7 µM in series [8] and in series [10] were 193% and 188%, respectively. Besides, the Papp A→B at 6 h in series [20] is 31 ×10⁻⁶ cm/s. Also, the efflux ratio at 6 h in series [21] amounted to 1.4. Moreover, the hepatocyte CLint in series [22] was under 1 µL/min/1e6 cells.

Source of the values: ChEMBL document CHEMBL5244269, “Improving metabolic stability and removing aldehyde oxidase liability in a 5-azaquinazoline series of IRAK4 inhibitors” (Bioorg Med Chem, 2020).
